The text below walks through data of patent publication US7705028B2, “Farnesoid X receptor agonists” (GlaxoSmithKline LLC, priority 2005, dated 2010).

Counter-ions that a name gives are not always drawn.

The first experiment concerns the target T1, human FXR ligand binding domain (LBD) (Homo sapiens, UniProt Q96RI1).
T1 construct: polyhistidine (pRSET-A vector leader) (N); made in house; host or cells: E. coli BL21 (DE3), pRSET-A vector
T1 sequence (Q96RI1 237-472 isoform Q96RI1-2): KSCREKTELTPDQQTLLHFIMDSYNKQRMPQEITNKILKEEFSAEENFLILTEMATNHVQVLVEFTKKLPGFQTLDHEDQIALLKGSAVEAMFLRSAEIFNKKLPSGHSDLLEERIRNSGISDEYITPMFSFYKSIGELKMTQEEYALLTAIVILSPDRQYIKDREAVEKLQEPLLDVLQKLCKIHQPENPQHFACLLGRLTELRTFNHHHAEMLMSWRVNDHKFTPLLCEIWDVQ
T1 sequence (Q15788 676-700 partner): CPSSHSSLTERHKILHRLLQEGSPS
As to the kind of experiment: FXR Cofactor Binding Assay (TRF, SRC-1 peptide recruitment). The following applies: protocol †: 0.1 μL of test compound, final assay volume 10 μL; read-out: Activity (pEC50) (converted). It counts as biochemical. From the text:
Determination of a ligand mediated cofactor peptide interaction to quantify ligand binding to the nuclear receptor Farnasoid X Receptor (FXR). The method measures the ability of putative ligands to modulate the interaction between the purified bacterial expressed human FXR ligand binding domain (LBD) and a synthetic biotinylated peptide based on residues 676-700 of steroid receptor coactivator-1 (SRC-1) (LXXLL-containing domain-2 where L is the amino acid leucine and X indicates any other amino acid (LCD2), 676-700). The sequence of the SRC-1 peptide used is as published in Iannone, M. A. et al, Cytometry 44:326-337 (2001) where the N-terminus was biotinylated (B) and the C-terminus was amidated. Detection of the associated complex was measured by time resolved fluorescence (TRF). The purified LBD of FXR was labeled with biotin then mixed with stoichiometric amounts of allophycocyanin (APC) labeled streptavidin (Molecular Probes). The biotinylated peptide was then mixed with a ½ stoichiometric amount of europium labeled streptavidin (Wallac Inc). Each was then blocked with a 5 fold excess of biotin and allowed to equilibrate for 15 min. Equimolar amounts of receptor and peptide were mixed together and were allowed to equilibrate for at least 30 min prior to the addition to either a variable or constant concentrations of the sample for which the affinity is to be determined. After equilibration, the time-resolved fluorescent signal was quantitated using a fluorescent plate reader. The affinity of the test compound was estimated from a plot of fluorescence versus concentration of test compound added.
A basal level of FXR: peptide formation is observed in the absence of added ligand. Ligands that promote the complex formation induce a concentration-dependent increase in time-resolved fluorescent signal. Compounds which bind equally well to both non-/un-complexed FXR and to the FXR: peptide complex would be expected to give no change in signal, whereas ligands which bind preferentially to the non-/un-complexed receptor would be expected to induce a concentration-dependent decrease in the observed signal.
Human FXR Ligand Binding Domain (FXR LBD) was expressed in E. coli strain BL21 (DE3) as an amino-terminal polyhistidine tagged fusion protein. Expression was under the control of an isopropyl-β-D-thiogalactopyranoside (IPTG) inducible T7 promoter. DNA encoding this recombinant protein is subcloned into the pRSET-A expression vector (Invitrogen). The coding sequence of Human FXR LBD was derived from Genbank accession number U 68233 (amino acids 237 to 472).
Ten-liter fermentation batches were grown in Rich PO4 media with 0.1 mg/mL Ampicillin at 25° C. for 12 hours, cooled to 9° C. and held at that temperature for 36 hours to a density of OD600=14. At this cell density, 0.25 mM IPTG is added and induction proceeded for 24 hours at 9° C., to a final OD600=16. Cells are harvested by centrifugation (20 minutes, 3500× gravity, 4° C.), and concentrated cell slurries were stored in phosphate buffered saline (PBS) at […].
Routinely, 30-40 g cell paste (equivalent to 2-3 liters of the fermentation batch) was resuspended in 200-250 mL Tris buffered saline (TBS), pH 7.2 (25 mM Tris-Hydroxymethylamino methane (Tris), 150 mM NaCl). Cells were lysed by passing 3 times through a French Press and cell debris was removed by centrifugation (30 minutes, 20,000× gravity, 4° C.). The cleared supernatant was filtered through course pre-filters, and TBS, pH 7.2, 500 mM imidazole was added to obtain a final imidazole concentration of 50 mM. This lysate was loaded onto a column (6×8 cm) packed with Sepharose [Ni^++ charged] Chelation resin (Pharmacia) and pre-equilibrated with TBS pH 7.2/50 mM imidazole. After washing to baseline absorbance with equilibration buffer, the column was washed with one column volume of TBS pH 7.2 containing 90 mM imidazole. FXR LBD was eluted directly with 365 mM imidazole. […]
For the compound `CC(C)c1onc(-c2c(Cl)cccc2Cl)c1COc1ccc(-c2ccc3c(C(=O)O)cccc3c2)cc1` [Example 1, 6-[4-({[3-(2,6-Dichlorophenyl)-5-(1-methylethyl)-4-isoxazolyl]methyl}oxy)phenyl]-1-naphthoic Acid Sodium Salt], the EC50 is < 100 nM.
Same read-out and setting: the result for `CC(C)c1onc(-c2c(Cl)cccc2Cl)c1COc1ccc(-c2ccc3c(C(=O)O)cccc3c2)c(Cl)c1` [Example 2, 6-[2-Chloro-4-({[3-(2,6-dichlorophenyl)-5-(1-methylethyl)-4-isoxazolyl]methyl}oxy)phenyl]-1-naphthalenecarboxylic acid] reads 102 to 1000 nM; that for `O=C(O)c1cccc2cc(-c3ccc(OCc4c(-c5c(Cl)cccc5Cl)noc4C4CCC4)cc3)ccc12` [Example 3, 6-[4-({[5-cyclobutyl-3-(2,6-dichlorophenyl)-4-isoxazolyl]methyl}oxy)phenyl]-1-naphthalenecarboxylic acid], 102 to 1000 nM.
Turning to `CC(C)c1onc(CCc2c(Cl)cccc2Cl)c1COc1ccc(-c2ccc3c(C(=O)O)cccc3c2)cc1` [Example 5, 6-[4-({[3-[2-(2,6-dichlorophenyl)ethyl]-5-(1-methylethyl)-4-isoxazolyl]methyl}oxy)phenyl]-1-naphthalenecarboxylic acid], the EC50 is 102 to 1000 nM.
For the compound `CC(C)c1onc(-c2c(Cl)cccc2Cl)c1COc1ccc(-c2ccc3cc(C(=O)O)ccc3c2)cc1` [Example 6, 6-(4-{[3-(2,6-dichlorophenyl)-5-isopropylisoxazol-4-yl]methoxy}phenyl)-2-naphthoic acid], the EC50 is 102 to 1000 nM.
On the same count and under the same terms, the result for `CC(C)c1onc(-c2c(Cl)cccc2Cl)c1COc1ccc(-c2ccc3ccc(C(=O)O)cc3c2)cc1` [Example 8, 7-[4-({[3-(2,6-dichlorophenyl)-5-(1-methylethyl)-4-isoxazolyl]methyl}oxy)phenyl]-2-naphthalenecarboxylic acid] reads 102 to 1000 nM; that for `CC(C)c1onc(CCc2c(Cl)cccc2Cl)c1COc1ccc(-c2ccc3ccc(C(=O)O)cc3c2)cc1` [Example 9, 7-[4-({[3-[2-(2,6-dichlorophenyl)ethyl]-5-(1-methylethyl)-4-isoxazolyl]methyl}oxy)phenyl]-2-naphthalenecarboxylic acid], 102 to 1000 nM; that for `CC(C)c1onc(-c2c(Cl)cccc2Cl)c1COc1ccc(-c2ccc3cccc(C(=O)O)c3c2)cc1` [Example 10, 7-[4-({[3-(2,6-dichlorophenyl)-5-(1-methylethyl)-4-isoxazolyl]methyl}oxy)phenyl]-1-naphthalenecarboxylic acid], 1020 to 10000 nM.
On the same count and under the same terms, the result for `CC(C)c1onc(CCc2c(Cl)cccc2Cl)c1COc1ccc(-c2ccc3cccc(C(=O)O)c3c2)cc1` [Example 11, 7-[4-({[3-[2-(2,6-dichlorophenyl)ethyl]-5-(1-methylethyl)-4-isoxazolyl]methyl}oxy)phenyl]-1-naphthalenecarboxylic acid] reads 1020 to 10000 nM.

The experiment is the same for the next values; noted with them: protocol ⋄: 0.5 μL of test compound, final assay volume 25 μL; read-out: Activity (pEC50) (converted).
Consider `CC(C)c1onc(-c2c(Cl)cccc2Cl)c1COc1ccc(-c2ccc3c(C(=O)O)cccc3c2)cc1` [Example 1, 6-[4-({[3-(2,6-Dichlorophenyl)-5-(1-methylethyl)-4-isoxazolyl]methyl}oxy)phenyl]-1-naphthoic Acid Sodium Salt], for which the EC50 is < 100 nM.
`CC(C)c1onc(Cc2c(Cl)cccc2Cl)c1COc1ccc(-c2ccc3c(C(=O)O)cccc3c2)cc1` [Example 4, 6-[4-({[3-[(2,6-dichlorophenyl)methyl]-5-(1-methylethyl)-4-isoxazolyl]methyl}oxy)phenyl]-1-naphthalenecarboxylic acid]: the EC50 is 102 to 1000 nM.
For the compound `CC(C)c1onc(CCc2c(Cl)cccc2Cl)c1COc1ccc(-c2ccc3c(C(=O)O)cccc3c2)cc1` [Example 5, 6-[4-({[3-[2-(2,6-dichlorophenyl)ethyl]-5-(1-methylethyl)-4-isoxazolyl]methyl}oxy)phenyl]-1-naphthalenecarboxylic acid], the EC50 was < 100 nM.
The same measure, in the same setting: under `CC(C)c1onc(-c2c(Cl)cccc2Cl)c1COc1ccc(-c2ccc3c(C(N)=O)cccc3c2)cc1` [Example 12a, 6-[4-({[3-(2,6-dichlorophenyl)-5-(1-methylethyl)-4-isoxazolyl]methyl}oxy)phenyl]-1-naphthalenecarboxamide] stands 1020 to 10000 nM; under `CC(C)c1onc(-c2c(Cl)cccc2Cl)c1COc1ccc(-c2ccc3c(C#N)cccc3c2)cc1` [Example 12b, 6-[4-({[3-(2,6-dichlorophenyl)-5-(1-methylethyl)-4-isoxazolyl]methyl}oxy)phenyl]-1-naphthalenecarbonitrile], 1020 to 10000 nM.
